Here are results for six compounds from patent EP0358177A1, “Medicine with a synergistic antimycosic and antiviral activity” (HOECHST AKTIENGESELLSCHAFT, priority 1988, dated 1990).

What all share (assay type): cell-based
One experiment concerns M. canis. The experiment in a line: Minimal inhibitory concentration (MHK), microdilution test in Neopepton Dextrose Bouillon. Conditions: Microsporum canis, read-out: MHK. The source says: (§1) Die minimale Hemmkonzentration (MHK), das heißt, diejenige Konzentration bei der das Wachstum der Pilze noch makroskopisch sichtbar gehemmt ist, wurde im Mitrkoverdünnungstest (Mikrodilutiontest in Neopepton Dextrose Boullion, siehe: "Comparison of two different techniques in primary micrological screening": Standard serial dilution test and microtitration test; W. Raether, M. Uphoff und G. Staut, mycosen, 27 (1984), p. 15 - 28) geprüft. Das Inokulum pro Weil betrug bei Candida albicans 10^3 cfu/ml und bei Microsporum canis 1,6 10^5 cfu/ml (cfu = colony forming units).
(§2) Zunächst wurde die minimale Hemmkonzentration eines jeden Kombinationspartners (Ciclopiroxolamin bzw. Nigericin oder Nigericinderivat) allein festgestellt (Cyclopyoxolamin: 2 u.g/ml; Nigericin und alle Nigericinderivate: >128 u.g/ml). Anschließend wurde die MHK für Ciclopiroxolamin in Anwesenheit von jeweils 64 µg/ml, 16 u.g/ml und 1 µg/ml eines Nigericinderivats geprüft, um festzustellen inwieweit der Zusatz des Nigericinderivats die Wirkung von Ciclopiroxolamin verstärken konnte.

In the next experiment the test system is C. albicans. Described as above. The conditions noted are these: Candida albicans, read-out: MHK.
Text: as §1, §2

The test system of experiment [1] is Microsporum Canis und Candida albicans. The experiment in a line: Minimal inhibitory concentration (MHK), microdilution test, text statements not separated by test strain. The conditions noted are these: each combination partner alone; test strain not specified; read-out: minimale Hemmkonzentration eines jeden Kombinationspartners allein.
Text: as §1, §2

Values after ≈ are worked out from the molar mass of the structure shown. Like-named read-outs stand apart in the source and are kept apart here.

`COC1CC(CC2CCC(C)C(C(C)C(=O)O)O2)OC2(OC(C)(C3CCC(C)(C4OC(C5OC(O)(COC(=O)CCC(=O)O)C(C)CC5C)CC4C)O3)CC2C)C1C` (stereo not shown) [Beispiel 17]: the MIC in the experiment with M. canis and in the experiment on C. albicans was 128 µg/mL (≈ 155 µM) each time.

As to `COC1CC(CC2CCC(C)C(C(C)C(=O)O)O2)OC2(OC(C)(C3CCC(C)(C4OC(C5OC(O)(COC(=O)c6ccccc6)C(C)CC5C)CC4C)O3)CC2C)C1C` (stereo not shown) [Beispiel 18], the MIC in the experiment on M. canis and in the experiment on C. albicans was 128 µg/mL (≈ 154 µM) each time.

For `COC1CC(CC2CCC(C)C(C(C)C(=O)O)O2)OC2(OC(C)(C3CCC(C)(C4OC(C5OC(O)(COC(=O)Cc6ccccc6)C(C)CC5C)CC4C)O3)CC2C)C1C` (stereo not shown) [Beispiel 19], the MIC in the experiment on M. canis (M. canis, substance alone) came to 128 µg/mL (≈ 152 µM); with C. albicans (C. albicans, substance alone), 128 µg/mL (≈ 152 µM).

For `COC1CC(CC2CCC(C)C(C(C)C(=O)O)O2)OC2(OC(C)(C3CCC(C)(C4OC(C5OC(O)(COC(=O)CCOc6ccccc6)C(C)CC5C)CC4C)O3)CC2C)C1C` (stereo not shown) [Beispiel 20], the MIC in the experiment with M. canis and in the experiment on C. albicans was 128 µg/mL (≈ 147 µM) throughout.

Take `Cc1cc(C2CCCCC2)n(O)c(=O)c1` [Ciclopiroxolamin, Ethanolamin des 6-Cyclohexyl-1-Hydroxy-4-methyl-2(1H)-Pyridons, reference compound]: the MIC came to 2 µg/mL in experiment [1]; 2 µg/mL (≈ 9.65 µM) in the experiment with M. canis (M. canis, substance alone); 2 µg/mL (≈ 9.65 µM) in the experiment with C. albicans (C. albicans, substance alone).

For `CO[C@@H]1C[C@@H](C[C@H]2CC[C@H](C)[C@H]([C@@H](C)C(=O)O)O2)O[C@]2(O[C@](C)([C@H]3CC[C@@](C)([C@@H]4O[C@@H]([C@H]5O[C@@](O)(CO)[C@H](C)C[C@@H]5C)C[C@@H]4C)O3)C[C@H]2C)[C@@H]1C` [Nigericin, reference compound], the MIC was determined as 128 µg/mL (≈ 177 µM) in the experiment on M. canis (M. canis, substance alone) and 128 µg/mL (≈ 177 µM) in the experiment with C. albicans (C. albicans, substance alone).
